Data: ChEMBL document CHEMBL3286154, “Oxabicyclooctane-linked novel bacterial topoisomerase inhibitors as broad spectrum antibacterial agents” (ACS Med Chem Lett, 2014)
Calls of active or inactive are those of the source. The calls are words filed in the database; no cut-off is given here.

Experiments:
Liver = assay: Metabolic stability in mouse liver microsomes after 30 to 60 mins; assay type: ADME
Liver microsome [1] = assay: Metabolic stability in dog liver microsomes after 30 to 60 mins; assay type: ADME, Canis lupus familiaris
Staphylococcus aureus [2] = assay: Antibacterial activity against Staphylococcus aureus infected in po dosed ICR mouse assessed as increase in mouse survival after 7 days; assay type: functional; settings: 168 h
Mus musculus = assay: Dose normalized AUC in C57BL/6 mouse at 1 mg/kg, iv and 2 mg/kg, po; assay type: ADME, organism-based; settings: in vivo
[3] = Plasma clearance in C57BL/6 mouse at 1 mg/kg, iv and 2 mg/kg, po; assay type: ADME, organism-based
[4] = Volume of distribution at steady state in C57BL/6 mouse at 1 mg/kg, iv and 2 mg/kg, po; assay type: ADME, organism-based; settings: in vivo, read-out: Vdss
[5] = Half life in C57BL/6 mouse at 1 mg/kg, iv and 2 mg/kg, po; assay type: ADME, organism-based; settings: in vivo
[6] = Oral bioavailability in C57BL/6 mouse at 2 mg/kg; assay type: ADME, organism-based; settings: in vivo
Canis familiaris = assay: Dose normalized AUC in beagle dog at 1 mg/kg, iv and 2 mg/kg, po; assay type: ADME, organism-based, Canis lupus familiaris; settings: in vivo
[7] = Plasma clearance in beagle dog at 1 mg/kg, iv and 2 mg/kg, po; assay type: ADME, organism-based, Canis lupus familiaris
[8] = Volume of distribution at steady state in beagle dog at 1 mg/kg, iv and 2 mg/kg, po; assay type: ADME, organism-based, Canis lupus familiaris; settings: in vivo, read-out: Vdss
[9] = Half life in beagle dog at 1 mg/kg, iv and 2 mg/kg, po; assay type: ADME, organism-based, Canis lupus familiaris; settings: in vivo
[10] = Oral bioavailability in beagle dog at 2 mg/kg; assay type: ADME, organism-based, Canis lupus familiaris; settings: in vivo
Staphylococcus aureus [11] = assay: Antibacterial activity against methicillin-sensitive Staphylococcus aureus; assay type: functional
Staphylococcus aureus [12] = assay: Antibacterial activity against methicillin-resistant Staphylococcus aureus; assay type: functional
Streptococcus pneumoniae = assay: Antibacterial activity against Streptococcus pneumoniae; assay type: functional
Enterococcus faecalis = assay: Antibacterial activity against Enterococcus faecalis; assay type: functional
Enterococcus faecium = assay: Antibacterial activity against vancomycin-resistant Enterococcus faecium; assay type: functional
Haemophilus influenzae = assay: Antibacterial activity against Haemophilus influenzae; assay type: functional
Escherichia coli [13] = assay: Antibacterial activity against Escherichia coli; assay type: functional
Acinetobacter baumannii = assay: Antibacterial activity against Acinetobacter baumannii; assay type: functional
Pseudomonas aeruginosa = assay: Antibacterial activity against Pseudomonas aeruginosa; assay type: functional
Staphylococcus aureus [14] = assay: Antibacterial activity against quinolone-sensitive Staphylococcus aureus; assay type: functional
Staphylococcus aureus [15] = assay: Antibacterial activity against quinolone-resistant Staphylococcus aureus; assay type: functional
DNA gyrase = DNA gyrase (Staphylococcus aureus, UniProt P0A0K8+P20831); assay: Inhibition of Staphylococcus aureus DNA gyrase; assay type: protein-complex assay
[16] = Inhibition of Staphylococcus aureus DNA topoisomerase 4
[17] = Inhibition of Escherichia coli gyrase
[18] = Inhibition of Escherichia coli topoisomerase 4
[19] = Solubility of the compound in PBS at pH 2; assay type: physicochemical
Staphylococcus aureus [20] = assay: Antibacterial activity against Staphylococcus aureus in presence of 50% human serum; assay type: functional, organism-based
Staphylococcus aureus [21] = assay: Antibacterial activity against Staphylococcus aureus in presence of 500 ug/ml sheared DNA; assay type: functional, organism-based
Staphylococcus aureus [22] = assay: Antibacterial activity against Staphylococcus aureus infected in iv dosed ICR mouse assessed as increase in mouse survival after 7 days; assay type: functional; settings: 168 h
[23] = Solubility of the compound in PBS at pH 7; assay type: physicochemical
[24] = Unbound fraction in human plasma; assay type: ADME, cell-free
[25] = Unbound fraction in dog plasma; assay type: ADME, cell-free, Canis lupus familiaris
[26] = Unbound fraction in mouse plasma; assay type: ADME, cell-free
Liver microsome [27] = assay: Metabolic stability in human liver microsomes after 30 to 60 mins; assay type: ADME
Staphylococcus aureus [28] = assay: Inhibition of DNA synthesis in Staphylococcus aureus using radioligand at 0.001 to 1 ug/ml by scintillation counting
Escherichia coli [29] = assay: Antibacterial activity against Escherichia coli infected in iv dosed ICR mouse assessed as increase in mouse survival after 7 days; assay type: functional; settings: 168 h
Escherichia coli [30] = assay: Antibacterial activity against Escherichia coli infected in po dosed ICR mouse assessed as increase in mouse survival after 7 days; assay type: functional; settings: 168 h
Moraxella catarrhalis = assay: Antibacterial activity against Moraxella catarrhalis; assay type: functional
Staphylococcus aureus [31] = assay: Antibacterial activity against Staphylococcus aureus ATCC 29213 assessed as reduction of colony forming units using > 10^5 CFU/ml inoculum at 0.06 to 0.12 ug/ml by time kill experiment; assay type: functional

DNA gyrase, sequence (P0A0K8 whole entry): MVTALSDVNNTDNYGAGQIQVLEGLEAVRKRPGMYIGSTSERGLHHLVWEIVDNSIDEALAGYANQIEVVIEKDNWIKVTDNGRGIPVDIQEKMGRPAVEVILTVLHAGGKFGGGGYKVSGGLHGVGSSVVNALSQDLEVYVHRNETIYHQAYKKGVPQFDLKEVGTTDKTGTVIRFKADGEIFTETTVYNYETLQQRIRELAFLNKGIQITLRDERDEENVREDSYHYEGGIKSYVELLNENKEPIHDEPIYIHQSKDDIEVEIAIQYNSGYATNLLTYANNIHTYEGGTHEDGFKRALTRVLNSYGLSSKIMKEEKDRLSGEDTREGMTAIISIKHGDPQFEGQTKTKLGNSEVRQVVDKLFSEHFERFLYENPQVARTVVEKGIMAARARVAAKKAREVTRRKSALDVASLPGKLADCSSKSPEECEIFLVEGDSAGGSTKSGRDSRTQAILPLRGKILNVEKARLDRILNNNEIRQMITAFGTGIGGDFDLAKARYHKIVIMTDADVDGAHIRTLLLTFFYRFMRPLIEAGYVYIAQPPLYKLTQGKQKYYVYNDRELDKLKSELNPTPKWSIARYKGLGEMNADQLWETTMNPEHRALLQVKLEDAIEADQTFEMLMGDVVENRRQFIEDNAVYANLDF
DNA gyrase, sequence (P20831 whole entry): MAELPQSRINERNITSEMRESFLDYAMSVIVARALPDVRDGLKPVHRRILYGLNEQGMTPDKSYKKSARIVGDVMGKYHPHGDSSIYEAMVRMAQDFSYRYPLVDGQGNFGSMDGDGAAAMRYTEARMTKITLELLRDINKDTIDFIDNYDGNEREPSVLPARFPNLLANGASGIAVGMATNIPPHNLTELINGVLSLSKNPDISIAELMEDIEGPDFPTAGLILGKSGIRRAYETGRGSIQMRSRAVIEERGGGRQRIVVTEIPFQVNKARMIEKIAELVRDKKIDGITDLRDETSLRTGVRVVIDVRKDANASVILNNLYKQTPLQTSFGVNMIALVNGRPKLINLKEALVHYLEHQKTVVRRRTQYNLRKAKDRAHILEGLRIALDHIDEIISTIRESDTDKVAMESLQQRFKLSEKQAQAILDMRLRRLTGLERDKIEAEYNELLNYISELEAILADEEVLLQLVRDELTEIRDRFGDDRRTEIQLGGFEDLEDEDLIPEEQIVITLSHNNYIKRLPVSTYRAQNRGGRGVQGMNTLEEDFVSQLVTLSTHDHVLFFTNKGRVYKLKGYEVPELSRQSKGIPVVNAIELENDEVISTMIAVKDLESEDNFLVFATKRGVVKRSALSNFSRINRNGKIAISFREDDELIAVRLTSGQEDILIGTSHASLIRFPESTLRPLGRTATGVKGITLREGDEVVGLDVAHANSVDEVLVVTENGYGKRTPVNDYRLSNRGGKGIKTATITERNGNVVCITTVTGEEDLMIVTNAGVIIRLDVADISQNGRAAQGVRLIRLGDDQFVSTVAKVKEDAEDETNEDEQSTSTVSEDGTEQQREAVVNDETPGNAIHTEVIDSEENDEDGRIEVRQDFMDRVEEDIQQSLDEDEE

For `COc1ccc2ncc(F)c(CCC34CCC(NCc5ccc6c(n5)NC(=O)CO6)(CC3)CO4)c2n1.Cl`, the Stability (Liver) was “Stable”, the Stability (Liver microsome [1]) was “Stable” and the ED50 (Staphylococcus aureus [2]) was 17 mg/kg. For the same compound, the AUC/dose (Mus musculus) was 0.98 µM·h/mpk, the clearance [3] was 34.6 mL/min/kg and the Vd [4] was 2.22 L/kg. It also gave a half-life [5] of 2.24 h, a bioavailability [6] of 71.6% and an AUC/dose (Canis familiaris) of 0.43 µM·h. The clearance [7] was 39.8 mL/min/kg, the Vd [8] was 5.36 L/kg and the half-life [9] was 1.85 h. The bioavailability [10] was > 100%, the MIC (Staphylococcus aureus [11]) was 0.016 µg/mL and the MIC (Staphylococcus aureus [12]) was 0.008 µg/mL. The MIC (Streptococcus pneumoniae) was 0.064 µg/mL, the MIC (Enterococcus faecalis) was 1 µg/mL and the MIC (Enterococcus faecium) was 0.5 µg/mL. For the same compound, the MIC (Haemophilus influenzae) was 1 µg/mL, the MIC (Escherichia coli [13]) was 1 µg/mL and the MIC (Acinetobacter baumannii) was 0.5 µg/mL. It also gave an MIC (Pseudomonas aeruginosa) of 4 µg/mL, an MIC (Staphylococcus aureus [14]) of 0.016 µg/mL and an MIC (Staphylococcus aureus [15]) of 0.064 µg/mL. It also gave an IC50 (DNA gyrase) of 220 nM, an IC50 [16] of 4400 nM and an IC50 [17] of 180 nM. For the same compound, the IC50 [18] was 200 nM, the solubility [19] was 20.3 µM and the Activity (Staphylococcus aureus [20]) was “inactive”. For the same compound, the Activity (Staphylococcus aureus [21]) was “inactive”, the ED50 (Staphylococcus aureus [22]) was 5.5 mg/kg and the solubility [23] was < 0.89 µM. For the same compound, the fraction unbound [24] was < 0.02, the fraction unbound [25] was < 0.02 and the fraction unbound [26] was < 0.02. The Stability (Liver microsome [27]) was “Stable” and the inhibition (Staphylococcus aureus [28]) was “Active”.

With `COc1ccc2ncc(F)c(C[C@H](O)C34CCC(NCc5ccc6c(n5)NC(=O)CO6)(CC3)CO4)c2n1.Cl` the Stability (Liver) was “Stable”, the Stability (Liver microsome [1]) was “Stable” and the ED50 (Staphylococcus aureus [2]) was 2.2 mg/kg. The ED50 (Escherichia coli [29]) was 23 mg/kg, the ED50 (Escherichia coli [30]) was 85 mg/kg and the AUC/dose (Mus musculus) was 0.76 µM·h/mpk. For the same compound, the clearance [3] was 43.3 mL/min/kg, the Vd [4] was 1.61 L/kg and the half-life [5] was 1.7 h. The bioavailability [6] was 30.1%, the AUC/dose (Canis familiaris) was 3.57 µM·h and the clearance [7] was 9.16 mL/min/kg. It also gave a Vd [8] of 2.6 L/kg, a half-life [9] of 4.49 h and a bioavailability [10] of 40.4%. For the same compound, the MIC (Staphylococcus aureus [11]) was 0.02 µg/mL, the MIC (Staphylococcus aureus [12]) was 0.06 µg/mL and the MIC (Streptococcus pneumoniae) was 0.05 µg/mL. For the same compound, the MIC (Enterococcus faecalis) was 0.5 µg/mL, the MIC (Enterococcus faecium) was 0.5 µg/mL and the MIC (Haemophilus influenzae) was 0.5 µg/mL. The MIC (Escherichia coli [13]) was 2 µg/mL, the MIC (Acinetobacter baumannii) was 0.5 µg/mL and the MIC (Moraxella catarrhalis) was 0.015 µg/mL. It also gave an MIC (Pseudomonas aeruginosa) of 8 µg/mL, an MIC (Staphylococcus aureus [14]) of 0.06 µg/mL and an MIC (Staphylococcus aureus [15]) of 0.25 µg/mL. It also gave an IC50 (DNA gyrase) of 1020 nM, an IC50 [16] of 10400 nM and an IC50 [17] of 780 nM. For the same compound, the IC50 [18] was 500 nM, the solubility [19] was 200 µM and the Activity (Staphylococcus aureus [20]) was “Active”. The Activity (Staphylococcus aureus [21]) was “Active”, the ED50 (Staphylococcus aureus [22]) was 2.5 mg/kg and the log10cfu (Staphylococcus aureus [31]) was >3. For the same compound, the solubility [23] was 154 µM, the fraction unbound [24] was > 0.25 and the fraction unbound [25] was > 0.25. For the same compound, the fraction unbound [26] was > 0.25 and the Stability (Liver microsome [27]) was “Stable”.

For `COc1ccc2ncc(F)c(C[C@@H](O)C34CCC(NCc5ccc6c(n5)NC(=O)CO6)(CC3)CO4)c2n1.Cl`, the Stability (Liver) was “Stable”, the Stability (Liver microsome [1]) was “Stable” and the ED50 (Staphylococcus aureus [2]) was 4.5 mg/kg. The AUC/dose (Mus musculus) was 0.68 µM·h/mpk, the clearance [3] was 48.7 mL/min/kg and the Vd [4] was 4.94 L/kg. For the same compound, the half-life [5] was 2.15 h, the bioavailability [6] was 25.3% and the MIC (Staphylococcus aureus [11]) was 0.06 µg/mL. It also gave an MIC (Staphylococcus aureus [12]) of 0.5 µg/mL, an MIC (Streptococcus pneumoniae) of 0.25 µg/mL and an MIC (Enterococcus faecalis) of 1 µg/mL. For the same compound, the MIC (Enterococcus faecium) was 2 µg/mL, the MIC (Escherichia coli [13]) was 4 µg/mL and the MIC (Acinetobacter baumannii) was 1 µg/mL. It also gave an MIC (Pseudomonas aeruginosa) of 8 µg/mL, an MIC (Staphylococcus aureus [14]) of 0.06 µg/mL and an MIC (Staphylococcus aureus [15]) of 0.5 µg/mL. For the same compound, the Activity (Staphylococcus aureus [20]) was “Active”, the Activity (Staphylococcus aureus [21]) was “Active” and the ED50 (Staphylococcus aureus [22]) was 3.5 mg/kg. For the same compound, the fraction unbound [24] was > 0.25, the fraction unbound [25] was > 0.25 and the fraction unbound [26] was > 0.25. For the same compound, the Stability (Liver microsome [27]) was “Stable”.
